In US10239878B2, “Macrocyclic ligands with pendant chelating moieties and complexes thereof” (LUMIPHORE, INC., priority 2016, dated 2019):
Where a name gives a salt, the structure may show the parent alone. Marks after values point to notes of the source that are not given here.

Legend:
[1] = 250 mM DTPA competition experiments (kinetic stability of Eu complexes); assay type: physicochemical
Description: From these experiments, it is clear that 43⋅Eu is remarkably stable to a wide range of competitive metal ions and chelators. The competitor concentrations mentioned above are a good way to assess the kinetic stability of the complex in various assay conditions. DTPA is an exceptionally good ligand for lanthanide ions, and thus it is not typically used in practical assays. However, DTPA competition offers an excellent way to benchmark the kinetic stability of the complexes reported here. […] In order to compare the kinetic stability of the complexes reported here, a 750 mM stock solution (25 mL) of DTPA was prepared by dissolving DTPA (7.375 g, 18.75 mmol) into water (20 mL) containing potassium hydroxide (5.26 g, 93.75 mmol). The pH of the DTPA solution was adjusted to pH=7.6 by addition of concentrated hydrochloric acid, and then the solution was diluted to a final volume of 25 mL to give a 750 mM DTPA stock solution at pH=7.6. HPLC purified europium complexes of 16, 29, 33, 40, and 43 were separately diluted to 11 μM in TBS buffer, pH=7.6. For each DTPA competition experiment, 1 mL of the 750 mM DTPA solution was added to 2 mL of the 11 μM europium complex solution. The luminescence at 612 nm (365 nm excitation) was monitored for these five separate solutions containing 250 mM DTPA and 7.1 μM of each europium complex as a function of time.

[2] = Photophysical characterization of Eu complexes (UV-vis absorption, quantum yield, lifetime); assay type: physicochemical; details: for ε260/ε at λmax / ε280/ε at λmax / λmax / Φtotal at 365 nm excitation: TBS buffer; for ε260/ε at λmax / ε280/ε at λmax / λmax: pH 7.6; for Φtotal at 365 nm excitation: quinine sulfate as quantum yield standard; for Lifetime: luminescence, HPLC purified Eu complexes
Experimental: The europium complexes of ligands 16, 29, 33, 40, and 43 were prepared by separately dissolving each ligand (2 mg) into methanol (200 μL). Excess europium chloride hexahydrate (˜5 equivalents) was dissolved in methanol (200 μL) and the full volume was added to each of the ligand solutions. The solvent was removed, and the residue was dissolved into DMF (50 μL). The europium complexes were then purified by semi-prep HPLC on an Agilent 1260 Infinity instrument using an Eclipse XDB-C18 column (5 μm, 9.4×250 mm). The mobile phase was 10 to 30% acetonitrile in water containing 0.1% trifluoroacetic acid. The volatiles were removed from the HPLC eluents under vacuum, and the residues were separately dissolved into methanol (500 μL) to give methanolic stock solutions of each europium complex with greater than 98% purity. A few drops of these methanolic solutions were evaporated to dryness, and then the residue was dissolved into TBS buffer at a concentration of ca. 3 μM to make aqueous stock solutions (20 mL) with an absorbance of 0.05 (1 cm path length) at 365 nm. Five dilutions (1/6, 2/6, 3/6, 4/6, and 5/6) were made from these aqueous stock solutions to yield six samples with evenly spaced concentrations (3 mL volume each). Quinine sulfate dissolved in 0.05 M sulfuric acid was similarly diluted to a final absorbance of 0.05 at 365 nm, and this solution was similarly (1/6, 2/6, 3/6, 4/6, and 5/6) diluted to afford six quinine sulfate reference samples of evenly spaced concentration. Quinine sulfate in 0.05 M sulfuric acid was used as the quantum yield standard (Φ=0.508). By measuring the absorbance and luminescence of these dilute solutions, the quantum yields of the new Eu complexes were determined. A 5 cm path-length quartz cell was used to measure the absorbance of these dilute solutions in order to improve the UV-vis signal-to-noise. Steady state photoluminescence measurements were collected in a 1 cm fluorescence cuvette at 365 nm excitation wavelength, 1 nm resolution, 10 nm excitation slit width, 1 nm emission slit width, and 0.2 sec integration time on an instrument that has been described elsewhere (D'Aléo, A.; Moore, E. G.; Szigethy, G.; Xu, J.; Raymond, K. N. Inorg. Chem. 2009, 48, 9316.). Absorption spectra were measured at 1 nm resolution, and the absorbance of each sample was taken as the average absorbance measured from 360-370 nm to reflect the 10 nm excitation slit width used for luminescence measurements. The data derived from these experiments, and from the titration experiments in example 11 are tabulated below.

[3] = Europium titration experiments for determining extinction coefficients; assay type: physicochemical; details: for ε at λmax (starred values): assumed equal to those measured by titration for 16 · Eu or 43 · Eu; for extinction coefficient: UV-vis titration with europium chloride, TBS buffer pH 7.6, at lambda max; for lambda max: UV-vis titration, TBS buffer; for ε at λmax: by europium titration, TBS buffer pH 7.6
Experimental: In order to determine accurate extinction coefficients for 16 and 16⋅Eu, titration experiments using europium chloride as the titrant were performed. Europium chloride hexahydrate (13.22 mg, 0.03608 mmol) was dissolved into 5 mM citrate buffer (pH=4) using a 100 mL volumetric flask to give a 0.3608 mM europium chloride solution, which was then titrated into a 0.5 mL solution of 16 in TBS buffer (Tris-buffered saline, 50 mM Tris, 150 mM NaCl, pH=7.6) using 5 μL aliquots. The UV-vis spectra were adjusted for the increase in solvent volume due to each injection. The results of the UV-vis titration are plotted in FIG. 3.
The volume of europium chloride corresponds to 16.70 nmol of europium, meaning the starting concentration of ligand 16 was 33.40 μM. […] These absorbance and concentration values yield extinction coefficients of 13,600 M^−1 cm^−1 and 14,300 M^−1 cm^−1 for the ligand 16 and the complex 16⋅Eu respectively.
In order to determine accurate extinction coefficients for 43 and 43⋅Eu, titration experiments using europium chloride as the titrant were performed. Europium chloride hexahydrate (47.58 mg, 0.1299 mmol) was dissolved into 50 mM citrate buffer (pH=4) using a 10 mL volumetric flask to give a 12.99 mM europium chloride solution, which was then transferred to a 100 mL volumetric flask and diluted 1:10 with water. The resulting 1.299 mM europium chloride solution (in 5 mM citrate buffer) was then titrated into a 1 mL solution of 43 in TBS buffer using 5 μL aliquots. The UV-vis spectra were adjusted for the increase in solvent volume due to each injection. The results of the UV-vis titration are plotted in FIG. 4.
The volume of europium chloride corresponds to 47.46 nmol of europium, meaning the starting concentration of ligand 43 was 47.46 μM. […] These absorbance and concentration values yield extinction coefficients of 13,000 M^−1 cm^−1 and 12,800 M^−1 cm^−1 for the ligand and complex respectively.
Titration of ligand 43 was also performed by luminescence (FIG. 5), monitoring the europium signal at 612 nm upon photoexcitation of the solution at 340 nm. The ligand solution used for the UV-vis titration of 43 mentioned above was first diluted 1:10 in TBS buffer. Similarly, the 1.299 mM stock europium solution was separately diluted 1:10 with water. […] The 32.99 μL equivalence point gives extinction coefficients of 14,400 M^−1 cm^−1 at 383 nm and 14,200 M^−1 cm^−1 at 357 nm for 43 and 43⋅Eu respectively. Averaging the values from both UV-vis and luminescence titration experiments of 43 yields extinction coefficients of 13,700 M^−1 cm^−1 at 383 nm and 13,500 M^−1 cm^−1 at 357 nm for 43 and 43⋅Eu respectively.

[4] = in 0.05 M sulfuric acid; cited from earlier work
[5] = Thorium(IV) complexes; ligand denticity bi- to deca-dentate; cited from earlier work

SMILES	ε260/ε at λmax [2]	ε280/ε at λmax [2]	λmax [2] [nm]	Φtotal at 365 nm excitation [2] [%]	Lifetime [2] [μs]	Log K1 [5]	also measured
NCCOCCNC(=O)C1CCCN(C(=O)c2cccc(=O)n2[O-])CCCNC(=O)c2ccc(n([O-])c2=O)C(=O)NCCNC(=O)c2ccc(c(=O)n2[O-])C(=O)NCCCN1C(=O)c1cccc(=O)n1[O-].[Eu+3] (stereo not drawn) [33⋅Eu]	1.40	1.14	363	30.0	723	–	kinetic stability relative to m-tetrahydrofurandiamine-based macrocycles (40⋅Eu and 43⋅Eu) [1]: ~5 ×; reduction in kinetic stability upon introduction of the spermine-based sidearm ([1]; 33⋅Eu versus 16⋅Eu, 43⋅Eu versus 40⋅Eu): two fold; ε at λmax (starred values) [3]: 14,300* M^−1cm^−1
O=C1NCCCN(C(=O)c2cccc(=O)n2[O-])CCCCN(C(=O)c2cccc(=O)n2[O-])CCCNC(=O)c2ccc(n([O-])c2=O)C(=O)NCCNC(=O)c2ccc1c(=O)n2[O-].[Eu+3] [16⋅Eu]	1.40	1.12	361	30.9	716	–	extinction coefficient [3]: 14,300 M^−1 cm^−1; lambda max [3]: 361 nm; ε at λmax [3]: 14,300 M^−1cm^−1
C=C[C@H]1C[N@@]2CC[C@H]1C[C@H]2[C@H](O)c1ccnc2ccc(OC)cc12 [Quinine sulfate]	–	–	–	–	–	–	quantum yield standard Φ [4]: 0.508
O=C(O)CN(CCO)CCN(CC(=O)O)CC(=O)O [HEDTA]	–	–	–	–	–	18.5	–
O=C(O)CN(CC(=O)O)CC(=O)O [NTA]	–	–	–	–	–	16.9	–
O=C1NCCCN(C(=O)c2cccc(=O)n2O)CCCCN(C(=O)c2cccc(=O)n2O)CCCNC(=O)c2ccc(n(O)c2=O)C(=O)NCCNC(=O)c2ccc1c(=O)n2O [Compound 16]	1.98	1.27	382	–	–	–	extinction coefficient [3]: 13,600 M^−1 cm^−1; lambda max [3]: 382 nm; ε at λmax [3]: 13,600 M^−1cm^−1
NCCCC[C@H]1CNC(=O)c2ccc(c(=O)n2[O-])C(=O)NCCCN(C(=O)c2cccc(=O)n2[O-])CCCCN(C(=O)c2cccc(=O)n2[O-])CCCNC(=O)c2ccc(n([O-])c2=O)C(=O)N1.[Eu+3] [29⋅Eu]	1.42	1.18	363	29.8	716	–	kinetic stability relative to 43⋅Eu to challenge by DTPA [1]: at least an order of magnitude; kinetic stability relative to m-tetrahydrofurandiamine-based macrocycles (40⋅Eu and 43⋅Eu) [1]: ~5 ×; ε at λmax (starred values) [3]: 14,300* M^−1cm^−1
O=C(O)CN(CCN(CCN(CC(=O)O)CC(=O)O)CC(=O)O)CCN(CC(=O)O)CC(=O)O [TTHA]	–	–	–	–	–	31.9	–
O=C(O)CN(CCN(CC(=O)O)CC(=O)O)CC(=O)O [EDTA]	–	–	–	–	–	25.3	–
CC(=O)CC(C)=O [Acac]	–	–	–	–	–	7.85	–
O=C1NCCCN(C(=O)c2cccc(=O)n2[O-])CCCCN(C(=O)c2cccc(=O)n2[O-])CCCNC(=O)c2ccc(n([O-])c2=O)C(=O)N[C@@H]2COC[C@@H]2NC(=O)c2ccc1c(=O)n2[O-].[Eu+3] [40⋅Eu]	1.51	1.19	357	28.2	729	–	ε at λmax (starred values) [3]: 13,500* M^−1cm^−1
